Entries after “also recorded” stand apart in the source; their conditions may differ.
What was measured:
[1] = molecular target: T1, YWHAE (Homo sapiens, UniProt P62258); experiment: Mapping of FFF probe-modified peptide on YWHAE; format: binding; conditions: for Labeled Peptide (residues) of YWHAE 14-3-3 protein epsilon: P62258, PDB 3UBW
T1 construct: endogenous in cells; host or cells: human cells (HEK293T; a subset of probes also in K562)
T1 sequence (P62258 1-255): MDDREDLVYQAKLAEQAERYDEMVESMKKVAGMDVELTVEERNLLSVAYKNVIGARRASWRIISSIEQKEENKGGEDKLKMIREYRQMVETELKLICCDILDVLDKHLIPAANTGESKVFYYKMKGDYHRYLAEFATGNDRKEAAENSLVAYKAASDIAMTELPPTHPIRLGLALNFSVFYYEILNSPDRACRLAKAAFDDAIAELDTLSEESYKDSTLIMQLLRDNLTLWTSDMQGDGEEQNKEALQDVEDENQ
Procedure: Preparation and analysis was adapted from methods previously reported. In brief, for global mapping of fragment probe-modified peptides, separate 10 cm dishes of cells were treated with probes (200-250 μM) in 3.0 mL of DMEM (serum-free) and (if applicable) competitor ligands, proteomes harvested and subjected to click chemistry conditions with either light or heavy isotopically labeled biotin-TEV-azide (10 μL of 5 mM stocks in DMSO, final concentration=100 μM), TCEP, ligand and CuSO4 as detailed above. The samples were allowed to react for 1 h at which point the samples were centrifuged (16,000 g, 5 min, 4° C.). The resulting pellets were sonicated in ice-cold methanol (500 μL) and the resuspended light- and heavy-labeled samples were then combined and centrifuged (16,000 g, 5 min, 4° C.). The pellets were then solubilized in PBS containing 1.2% SDS (1 mL) with sonication and heating (5 min, 95° C.). Samples were transferred to falcon tubes containing DPBS (5 mL), to which a 100 μL of streptavidin-agarose beads slurry was added. After incubation, the beads (3 hr) were pelleted by centrifugation (1,400 g, 3 min) and were washed (2×10 mL PBS and 2×10 mL water). The beads were transferred to eppendorf tubes with 1 mL DPBS, centrifuged (1,400 g, 3 min), and resuspended in PBS containing 6 M urea. To this was added 10 mM DTT (25 μL of a 200 mM stock in water) and the beads were incubated at 65° C. for 15 mins. 20 mM iodoacetamide (25 μL of a 400 mM stock in water) was then added and allowed to react at 37° C. for 30 mins with shaking. The bead mixture was diluted with 900 μL PBS, pelleted by centrifugation (1,400 g, 3 min), and resuspended in 200 μL 2M urea (DPBS) containing trypsin and CaCl2 as described above. […]
(§1) The resulting probe-modified peptides were collected for MS analysis, which was performed as described above with differences in the salt bumps applied in the chromatographic gradients which in this case were 0%, 30%, 60%, 90% and 100% NH4OAc (500 μM). […] The isoTOP ratios for probe labeled peptides were quantified using the in-house software CIMAGE. […]

[2] = molecular target: T2, α-galactosidase (GLA) (Homo sapiens, UniProt P06280); experiment: Mapping of FFF probe-modified peptides on α-galactosidase (GLA); format: binding; conditions: near the active site and a secondary ligand binding site, respectively
T2 construct: endogenous in cells; host or cells: human cells (HEK293T; a subset of probes also in K562)
T2 sequence (P06280 32-429): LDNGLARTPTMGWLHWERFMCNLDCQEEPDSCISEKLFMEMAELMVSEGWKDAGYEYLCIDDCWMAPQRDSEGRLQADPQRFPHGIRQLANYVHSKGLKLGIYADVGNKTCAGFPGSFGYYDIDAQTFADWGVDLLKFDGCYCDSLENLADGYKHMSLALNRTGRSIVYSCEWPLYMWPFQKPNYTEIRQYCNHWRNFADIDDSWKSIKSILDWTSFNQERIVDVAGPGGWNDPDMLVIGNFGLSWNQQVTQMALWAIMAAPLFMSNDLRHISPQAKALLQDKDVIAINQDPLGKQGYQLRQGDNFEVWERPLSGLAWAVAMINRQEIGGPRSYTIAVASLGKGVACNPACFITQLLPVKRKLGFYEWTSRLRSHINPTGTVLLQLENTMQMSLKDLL
Procedure: Preparation and analysis was adapted from methods previously reported. In brief, for global mapping of fragment probe-modified peptides, separate 10 cm dishes of cells were treated with probes (200-250 μM) in 3.0 mL of DMEM (serum-free) and (if applicable) competitor ligands, proteomes harvested and subjected to click chemistry conditions with either light or heavy isotopically labeled biotin-TEV-azide (10 μL of 5 mM stocks in DMSO, final concentration=100 μM), TCEP, ligand and CuSO4 as detailed above. The samples were allowed to react for 1 h at which point the samples were centrifuged (16,000 g, 5 min, 4° C.). The resulting pellets were sonicated in ice-cold methanol (500 μL) and the resuspended light- and heavy-labeled samples were then combined and centrifuged (16,000 g, 5 min, 4° C.). The pellets were then solubilized in PBS containing 1.2% SDS (1 mL) with sonication and heating (5 min, 95° C.). Samples were transferred to falcon tubes containing DPBS (5 mL), to which a 100 μL of streptavidin-agarose beads slurry was added. After incubation, the beads (3 hr) were pelleted by centrifugation (1,400 g, 3 min) and were washed (2×10 mL PBS and 2×10 mL water). The beads were transferred to eppendorf tubes with 1 mL DPBS, centrifuged (1,400 g, 3 min), and resuspended in PBS containing 6 M urea. To this was added 10 mM DTT (25 μL of a 200 mM stock in water) and the beads were incubated at 65° C. for 15 mins. 20 mM iodoacetamide (25 μL of a 400 mM stock in water) was then added and allowed to react at 37° C. for 30 mins with shaking. The bead mixture was diluted with 900 μL PBS, pelleted by centrifugation (1,400 g, 3 min), and resuspended in 200 μL 2M urea (DPBS) containing trypsin and CaCl2 as described above. The beads were separated from the digest by centrifugation (1,000 g, 1 min), washed (2×1 mL PBS and 2×1 mL water) and then transferred to fresh eppendorfs with 1 mL water. The washed beads were washed once further in 150 μL TEV buffer (50 mM Tris, pH 8, 0.5 mM EDTA, 1 mM DTT) by centrifugation (1,400 g, 3 min) and the resuspended in 150 μL TEV buffer. 5 μL TEV protease (80 μM) was added and the reactions were rotated overnight at 29° C. The TEV digest was separated from the beads by centrifugation (1,400 g, 3 min) and the beads were washed once with water (100 μL). The samples were then acidified to a final concentration of 5% (v/v) formic acid and stored at −80° C. prior to analysis.
as §1

## C#CCCC1(CCC(=O)N2CCCCC2Cc2ccccc2)N=N1 (stereo not shown) [probe 13, 1-(2-Benzylpiperidin-1-yl)-3-(3-(but-3-yn-1-yl)-3H-diazirin-3-yl)propan-1-one]
[1]; peptide AAFDDAIAELDTLSEESYK
  Labeled Peptide (residues) of YWHAE 14-3-3 protein epsilon: 197-215
[1]; peptide EAAENSLVAYK
  Labeled Peptide (residues) of YWHAE 14-3-3 protein epsilon: 143-153
[1]; lines the primary interaction cleft for MLF1
  probe-modified peptide in YWHAE: aa 197-215

## C#CCCC1(CCC(=O)Nc2ccc(C3CCNCC3)cc2)N=N1 [probe 9, 3-(3-(But-3-yn-1-yl)-3H-diazirin-3-yl)-N-(4-(piperidin-4-yl)phenyl)propanamide]
[2]
  probe-modified peptides in GLA: aa 50-68; also recorded: aa 241-253
